pIC50: −log10 of the molar value.
These compounds were tested against T1, Human GO (Homo sapiens, UniProt Q9UJM8) (assay: GO enzymatic assay (coupled fluorescence/HRP assay, glycolate substrate)). Conditions: not given.
T1 construct: purchased Novus Biologicals NBP1-72412
T1 sequence (Q9UJM8 1-370): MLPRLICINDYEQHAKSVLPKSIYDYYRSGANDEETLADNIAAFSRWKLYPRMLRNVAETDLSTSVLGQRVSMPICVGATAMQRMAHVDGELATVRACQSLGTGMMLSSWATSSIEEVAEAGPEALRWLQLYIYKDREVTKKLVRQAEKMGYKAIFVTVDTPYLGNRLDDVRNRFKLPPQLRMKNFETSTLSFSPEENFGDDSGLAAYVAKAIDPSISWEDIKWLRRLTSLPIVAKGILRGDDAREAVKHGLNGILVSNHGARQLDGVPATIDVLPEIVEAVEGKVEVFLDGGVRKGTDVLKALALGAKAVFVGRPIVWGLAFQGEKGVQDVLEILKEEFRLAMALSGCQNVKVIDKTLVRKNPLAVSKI
Type: biochemical
Procedure, shortened: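 Coupled HRP/fluorescence read-out of glycolate oxidation by human GO in 50 mM potassium phosphate buffer (pH 7). Inhibitors added across a concentration range.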

| SMILES | pIC50 |
| --- | --- |
| O=C(O)c1[nH]nnc1Oc1ccc(-c2ccc(Cl)c(Cl)c2)cc1 [Compound 165, 4-((3′,4′-dichloro-[1,1′-biphenyl]-4-yl)oxy)-1H-1,2,3-triazole-5-carboxylic acid 2,2,2-trifluoroacetate] | > 7.00 |

Same assay, conditions: Table 1; read-out: Range (range of IC50 values calculated from the enzymatic assays)

| SMILES | pIC50 |
| --- | --- |
| O=C(O)c1[nH]nnc1C(F)(F)c1ccc(Cl)c(Cl)c1 [Compound 166, 4-((3,4-dichlorophenyl)difluoromethyl)-1H-1,2,3-triazole-5-carboxylic acid] | > 7.00 |
| O=C(O)c1[nH]nnc1OC1CCC(F)(F)CC1 [Compound 167, 4-((4,4-difluorocyclohexyl)oxy)-1H-1,2,3-triazole-5-carboxylic acid 2,2,2-trifluoroacetate] | > 7.00 |
| O=C(O)c1[nH]nnc1OC1CC2CCC1C2 (stereo not shown) [Compound 168, 4-(bicyclo[2.2.1]heptan-2-yloxy)-1H-1,2,3-triazole-5-carboxylic acid] | > 7.00 |

Same assay, conditions: Table 2; read-out: Range (range of IC50 values calculated from the enzymatic assays)

| SMILES | pIC50 |
| --- | --- |
| O=C(O)c1[nH]nnc1Sc1ccc(-c2ccc(N3CCCCC3)cc2)cc1 [Compound 169, 4-((4′-(piperidin-1-yl)-[1,1′-biphenyl]-4-yl)thio)-1H-1,2,3 triazole-5-carboxylic acid 2,2,2-trifluoroacetate] | > 7.00 |
| O=C(O)c1[nH]nnc1Sc1ccc(-c2cccc(OCC3CC3)c2)cc1 [Compound 170, 4-((3′-(cyclopropylmethoxy)-[1,1′-biphenyl]-4-yl)thio)-1H-1,2,3-triazole-5-carboxylic acid 2,2,2-trifluoroacetate] | > 7.00 |
| O=C(O)c1[nH]nnc1CSc1ccc2cc(Cl)ccc2c1 [Compound 171, 4-(((6-chloronaphthalen-2-yl)thio)methyl)-1H-1,2,3-triazole-5-carboxylic acid 2,2,2-trifluoroacetate] | > 7.00 |
| O=C(O)c1[nH]nnc1SC1CCc2cc(F)c(F)cc2C1 (stereo not shown) [Compound 172, 4-((6,7-difluoro-1,2,3,4-tetrahydronaphthalen-2-yl)thio)-1H-1,2,3-triazole-5-carboxylic acid] | > 7.00 |
| O=C(O)c1[nH]nnc1SC1Cc2cc(F)c(F)cc2C1 [Compound 173, 4-((5,6-difluoro-2,3-dihydro-1H-inden-2-yl)thio)-1H-1,2,3-triazole-5-carboxylic acid] | > 7.00 |
| O=C(O)c1[nH]nnc1SCc1ccc2cc(Cl)ccc2c1 [Compound 174, 4-(((6-chloronaphthalen-2-yl)methyl)thio)-1H-1,2,3-triazole-5-carboxylic acid 2,2,2-trifluoroacetate] | > 7.00 |
| CN1CCCc2cc(-c3ccc(Sc4nn[nH]c4C(=O)O)cc3)ccc21 [Compound 175, 4-((4-(1-methyl-1,2,3,4-tetrahydroquinolin-6-yl)phenyl)thio)-1H-1,2,3-triazole-5-carboxylic acid 2,2,2-trifluoroacetate] | > 7.00 |
| O=C(O)c1[nH]nnc1SCc1ccc(Cl)c(Cl)c1 [Compound 176, 4-((3,4-dichlorobenzyl)thio)-1H-1,2,3-triazole-5-carboxylic acid] | > 7.00 |
| O=C(O)c1[nH]nnc1SCc1ccc(-c2ccc(OC(F)(F)F)cc2)cc1 [Compound 177] | > 7.00 |
| O=C(O)c1[nH]nnc1CNc1ccc2cc(Cl)ccc2c1 [Compound 178, 4-(((6-chloronaphthalen-2-yl)amino)methyl)-1H-1,2,3-triazole-5-carboxylic acid 2,2,2-trifluoroacetate] | > 7.00 |
| CN(Cc1nn[nH]c1C(=O)O)c1ccc(Cl)c(Cl)c1 [Compound 179, 4-(((3,4-dichlorophenyl)(methyl)amino)methyl)-1H-1,2,3-triazole-5-carboxylic acid 2,2,2-trifluoroacetate] | > 7.00 |
| CN(Cc1nn[nH]c1C(=O)O)c1ccc2cc(Cl)ccc2c1 [Compound 180, 4-(((6-chloronaphthalen-2-yl)(methyl)amino)methyl)-1H-1,2,3-triazole-5-carboxylic acid 2,2,2-trifluoroacetate] | > 7.00 |
| O=C(O)c1[nH]nnc1Nc1ccc(-c2ccc(Cl)cc2)c(Cl)c1 [Compound 181, 4-((2,4′-dichloro-[1,1′-biphenyl]-4-yl)amino)-1H-1,2,3-triazole-5-carboxylic acid] | > 7.00 |
| O=C(O)c1[nH]nnc1NCc1ccc2cc(Cl)ccc2c1 [Compound 182, 4-(((6-chloronaphthalen-2-yl)methyl)amino)-1H-1,2,3-triazole-5-carboxylic acid] | 6.00 to 7.00 |
| O=C(O)c1[nH]nnc1Nc1ccc(-c2ccc(C(F)(F)F)cc2)cc1 [Compound 183, 4-((4′-(trifluoromethyl)-[1,1′-biphenyl]-4-yl)amino)-1H-1,2,3-triazole-5-carboxylic acid] | > 7.00 |
| CCN(Cc1nn[nH]c1C(=O)O)c1ccc(Cl)c(Cl)c1 [Compound 185, 4-(((3,4-dichlorophenyl)(ethyl)amino)methyl)-1H-1,2,3-triazole-5-carboxylic acid] | 6.00 to 7.00 |
| O=C(O)c1[nH]nnc1Nc1cnc2cc(Cl)ccc2c1 [Compound 186, 4-((7-chloroquinolin-3-yl)amino)-1H-1,2,3-triazole-5-carboxylic acid] | 5.00 to 6.00 |

| SMILES | pIC50 |
| --- | --- |
| CCN(Cc1nn[nH]c1C(=O)O)c1ccc2cc(Cl)ccc2c1 [Compound 187, 4-(((6-chloronaphthalen-2-yl)(ethyl)amino)methyl)-1H-1,2,3-triazole-5-carboxylic acid] | 6.00 to 7.00 |
| O=C(O)c1[nH]nnc1CN1CCCc2cc(Cl)ccc21 [Compound 188, 4-((6-chloro-3,4-dihydroquinolin-1(211)-yl)methyl)-1H-1,2,3-triazole-5-carboxylic acid] | 5.00 to 6.00 |
| CCN(Cc1nn[nH]c1C(=O)O)c1ccc(-c2ccc(OC(F)(F)F)cc2)cc1 [Compound 189, 4-((ethyl(4′-(trifluoromethoxy)-[1,1′-biphenyl]-4-yl)amino)methyl)-1H-1,2,3-triazole-5-carboxylic acid 2,2,2-trifluoroacetate] | 6.00 to 7.00 |
| O=C(O)c1[nH]nnc1NC1Cc2cc(Cl)c(Cl)cc2C1 [Compound 190, 4-((5,6-dichloro-2,3-dihydro-1H-inden-2-yl)amino)-1H-1,2,3-triazole-5-carboxylic acid 2,2,2-trifluoroacetate] | 6.00 to 7.00 |
| O=C(O)c1[nH]nnc1CN(Cc1ccccc1)c1ccc(C2CCCCC2)cc1 [Compound 194, 4-((benzyl(4-cyclohexylphenyl)amino)methyl)-1H-1,2,3-triazole-5-carboxylic acid] | 5.00 to 6.00 |
| O=C(O)c1[nH]nnc1CN(Cc1ccc(OC(F)(F)F)cc1)c1ccc(Cl)cc1 [Compound 195, 4-(((4-chlorophenyl)(4-(trifluoromethoxy)benzyl)amino)methyl)-1H-1,2,3-triazole-5-carboxylic acid] | 6.00 to 7.00 |
| O=C(O)c1[nH]nnc1CN(Cc1ccccc1)c1ccc(-c2ccc(OC(F)(F)F)cc2)cc1 [Compound 196, 4-((benzyl(4′-(trifluoromethoxy)-[1,1′-biphenyl]-4-yl)amino)methyl)-1H-1,2,3-triazole-5-carboxylic acid 2,2,2-trifluoroacetate] | 6.00 to 7.00 |
| O=C(O)c1[nH]nnc1C(F)(F)c1ccc(-c2ccc(Cl)cc2)c(Cl)c1 [Compound 197, 4-((2,4′-dichloro-[1,1′-biphenyl]-4-yl)difluoromethyl)-1H-1,2,3-triazole-5-carboxylic acid 2,2,2-trifluoroacetate] | > 7.00 |
| O=C(O)c1[nH]nnc1C(F)(F)c1ccc(-c2ccc(OC(F)(F)F)cc2)cc1 [Compound 198, 4-(difluoro(4′-(trifluoromethoxy)-[1,1′-biphenyl]-4-yl)methyl)-1H-1,2,3-triazole-5-carboxylic acid 2,2,2-trifluoroacetate] | > 7.00 |
| O=C(O)c1[nH]nnc1C(F)(F)c1ccc2cc(Cl)ccc2c1 [Compound 199, 4-((6-chloronaphthalen-2-yl)difluoromethyl)-1H-1,2,3-triazole-5-carboxylic acid] | > 7.00 |
| O=C(O)c1[nH]nnc1C(F)(F)c1ccc(-c2ccc(Cl)cc2)cc1 [Compound 200, 4-((4′-chloro-[1,1′-biphenyl]-4-yl)difluoromethyl)-1H-1,2,3-triazole-5-carboxylic acid 2,2,2-trifluoroacetate] | > 7.00 |
| O=C(O)c1[nH]nnc1C(F)(F)c1ccc(-c2ccc(Cl)c(Cl)c2)cc1 [Compound 201, 4-((3′,4′-dichloro-[1,1′-biphenyl]-4-yl)difluoromethyl)-1H-1,2,3-triazole-5-carboxylic acid 2,2,2-trifluoroacetate] | > 7.00 |
| O=C(O)c1[nH]nnc1-c1ccc(-c2ccc(Cl)cc2)c(OC(F)(F)F)c1 [Compound 203, 4-(4′-chloro-2-(trifluoromethoxy)-[1,1′-biphenyl]-4-yl)-1H-1,2,3-triazole-5-carboxylic acid] | > 7.00 |
| CC(C)C(=O)OCOC(=O)c1[nH]nnc1-c1ccc2cc(Cl)ccc2n1 [Compound 204, (isobutyryloxy)methyl 4-(6-chloroquinolin-2-yl)-1H-1,2,3-triazole-5-carboxylate] | 5.00 to 6.00 |
| CC(C)N1CCCc2cc(-c3nn[nH]c3C(=O)O)ccc21 [Compound 206, 4-(1-isopropyl-1,2,3,4-tetrahydroquinolin-6-yl)-1H-1,2,3-triazole-5-carboxylic acid 2,2,2-trifluoroacetate] | 5.00 to 6.00 |
| O=C(O)c1[nH]nnc1-c1cc(Cl)c(Cl)cn1 [Compound 207, 4-(4,5-dichloropyridin-2-yl)-1H-1,2,3-triazole-5-carboxylic acid] | 6.00 to 7.00 |
